What was measured:
[1] = MRT in male Sprague-Dawley rat at 25 nmol/kg, sc administered as single dose and measured after 24 hrs by LC-MS/MS analysis; type: ADME, organism-based; details: in vivo
[2] = AUC (inifinity) in male Sprague-Dawley rat at 25 nmol/kg, sc administered as single dose and measured after 24 hrs by LC-MS/MS analysis; type: ADME, organism-based; parameters: dose 25 nmol/kg, time 24 hrs, route sc; details: in vivo
[3] = Toxicity in male […] assessed as decrease in hepatic lipid content at 40 nmol/kg, sc administered twice daily for 3 weeks; type: organism-based; details: in vivo, 504 h

SMILES: CCCCCCCCCCCCCCCC(=O)N[C@@H](CCC(=O)NCCCC[C@H](NC(=O)[C@H](C)NC(=O)[C@H](C)NC(=O)[C@H](CCC(N)=O)NC(=O)CNC(=O)[C@H](CCC(=O)O)NC(=O)[C@H](CC(C)C)NC(=O)[C@H](Cc1ccc(O)cc1)NC(=O)[C@H](CO)NC(=O)[C@H](CO)NC(=O)[C@@H](NC(=O)[C@H](CC(=O)O)NC(=O)[C@H](CO)NC(=O)[C@@H](NC(=O)[C@H](Cc1ccccc1)NC(=O)[C@@H](NC(=O)CNC(=O)[C@H](CCC(=O)O)NC(=O)[C@H](C)NC(=O)[C@@H](N)Cc1cnc[nH]1)[C@@H](C)O)[C@@H](C)O)C(C)C)C(=O)N[C@@H](CCC(=O)O)C(=O)N[C@@H](Cc1ccccc1)C(=O)N[C@H](C(=O)N[C@@H](C)C(=O)N[C@@H](Cc1c[nH]c2ccccc12)C(=O)N[C@@H](CC(C)C)C(=O)N[C@H](C(=O)N[C@@H](CCCNC(=N)N)C(=O)NCC(=O)N[C@@H](CCCNC(=N)N)C(=O)NCC(=O)O)C(C)C)[C@@H](C)CC)C(=O)O
- MRT [1]: 6.6 h
- AUC at 24 h [2]: 3410 ng·h/mL
- Activity [3]: Toxic
